Where no end group is shown, it is not given here.
Tests used:
Experiment in all cases: Histone peptide microarray
Type in all cases: binding, human
[1] = system: DPF2 (PPC2W2); details: DPF2 (PPC2W2), GST-tagged; arrays performed twice, n of 4
Text: (§1) To more comprehensively define the histone interactions of the 31 PHD readers identified from the domain microarray analyses, we probed each on an alternate microarray platform containing a library of 293 synthetic histone peptides with single or combinatorial PTMs (Additional file 2: Figure S4 and Additional file 3: Table S2).
(§2) The 31 GST-tagged PHD readers identified in the PHD finger domain array were expressed and purified as previously. Histone peptide arrays and peptide pulldown assays were conducted as recently described (specifically, the optimized protocol from Petell et al. for the former).
(§3) Supplementary file 13072_2020_328_MOESM3_ESM.xlsx: Additional file 3: Table S2. […] Excel Tab Peptide List is a compiled list of the entire 293 histone peptide library with amino acid sequence ranges. […] Each number corresponds to the peptide number designated in Peptide List. Excel Tab Average Signals is a compiled set of binding data: chromatin reader at 0.5 μM vs. entire 293 peptide library. Data is presented as the average and standard deviation of 4 replicates. The average signals are colored to indicate signal intensity with green being strong and white being weak/low. […] Key: red= stronger relative binding; blue = weaker relative binding. Excel Tab Array info summary is a table summarizing the domains, sequence coverage, array signal range, and noise for each of the GST-tagged readers assayed on the peptide microarrays.

[2] = system: KDM5A (1); details: KDM5A (1), GST-tagged; arrays performed twice, n of 4
Text: as §1, §2, §3

[3] = system: MLL5; details: MLL5, GST-tagged; arrays performed twice, n of 4
Text: as §1, §2, §3

[4] = system: TRIM66 (PB); details: TRIM66 (PB), GST-tagged; arrays performed twice, n of 4
Text: as §1, §2, §3

[5] = system: KDM7A; details: KDM7A, GST-tagged; arrays performed twice, n of 4
Text: as §1, §2, §3

[6] = system: BPTF (PB); details: BPTF (PB), GST-tagged; arrays performed twice, n of 4
Text: as §1, §2, §3

[7] = system: PHF23; details: PHF23, GST-tagged; arrays performed twice, n of 4
Text: as §1, §2, §3

[8] = system: KDM5B (3); details: KDM5B (3), GST-tagged; arrays performed twice, n of 4
Text: as §1, §2, §3

[9] = system: PHF13; details: PHF13, GST-tagged; arrays performed twice, n of 4
Text: as §1, §2, §3

[10] = system: ING1; details: ING1, GST-tagged; arrays performed twice, n of 4
Text: as §1, §2, §3

[11] = system: BAZ2B; details: BAZ2B, GST-tagged; arrays performed twice, n of 4
Text: as §1, §2, §3

[12] = system: CHD5 (PPCC); details: CHD5 (PPCC), GST-tagged; arrays performed twice, n of 4
Text: as §1, §2, §3

[13] = system: ING5; details: ING5, GST-tagged; arrays performed twice, n of 4
Text: as §1, §2, §3

[14] = system: CHD5 (PCC); details: CHD5 (PCC), GST-tagged; arrays performed twice, n of 4
Text: as §1, §2, §3

[15] = system: ING3; details: ING3, GST-tagged; arrays performed twice, n of 4
Text: as §1, §2, §3

[16] = system: ING4; details: ING4, GST-tagged; arrays performed twice, n of 4
Text: as §1, §2, §3

[17] = system: CHD4 (PPCC); details: CHD4 (PPCC), GST-tagged; arrays performed twice, n of 4
Text: as §1, §2, §3

[18] = system: SP140L; details: SP140L, GST-tagged; arrays performed twice, n of 4
Text: as §1, §2, §3

[19] = system: RAG2; details: RAG2, GST-tagged; arrays performed twice, n of 4
Text: as §1, §2, §3

[20] = system: MORC3 (CW); details: MORC3 (CW), GST-tagged; arrays performed twice, n of 4
Text: as §1, §2, §3

[21] = system: KDM4C (TTP); details: KDM4C (TTP), GST-tagged; arrays performed twice, n of 4
Text: as §1, §2, §3

[22] = system: PHF8; details: PHF8, GST-tagged; arrays performed twice, n of 4
Text: as §1, §2, §3

[23] = system: PHRF1 (RP); details: PHRF1 (RP), GST-tagged; arrays performed twice, n of 4
Text: as §1, §2, §3

[24] = system: PHF2; details: PHF2, GST-tagged; arrays performed twice, n of 4
Text: as §1, §2, §3

[25] = system: ING2; details: ING2, GST-tagged; arrays performed twice, n of 4
Text: as §1, §2, §3

[26] = system: AIRE (PP); details: AIRE (PP), GST-tagged; arrays performed twice, n of 4
Text: as §1, §2, §3

[27] = system: KDM5B (1); details: KDM5B (1), GST-tagged; arrays performed twice, n of 4
Text: as §1, §2, §3

[28] = system: PHF21A; details: PHF21A, GST-tagged; arrays performed twice, n of 4
Text: as §1, §2, §3

[29] = system: KDM5A (3); details: KDM5A (3), GST-tagged; arrays performed twice, n of 4
Text: as §1, §2, §3

[30] = system: DIDO1; details: DIDO1, GST-tagged; arrays performed twice, n of 4
Text: as §1, §2, §3

[31] = system: TAF3; details: TAF3, GST-tagged; arrays performed twice, n of 4
Text: as §1, §2, §3

H2A.Z (1-19) (N-ac): H2AZ 1-19 (Ac-AGGKAGKDSGKAKTKAVSR; UniProt P0C0S5 2-20, looked up, fragment)
Array Heatmap value (peptide array binding signal) [1]: 0.6034 | Array Heatmap value (peptide array binding signal) [2]: 0.3887 | Array Heatmap value (peptide array binding signal) [3]: 0.5006 | Array Heatmap value (peptide array binding signal) [4]: 0.556 | Array Heatmap value (peptide array binding signal) [5]: 0.3467 | Array Heatmap value (peptide array binding signal) [6]: 0.3189 | Array Heatmap value (peptide array binding signal) [7]: 0.4986 | Array Heatmap value (peptide array binding signal) [8]: 0.4159 | Array Heatmap value (peptide array binding signal) [9]: 0.5558 | Array Heatmap value (peptide array binding signal) [10]: 0.4946 | Array Heatmap value (peptide array binding signal) [11]: 0.3915 | Array Heatmap value (peptide array binding signal) [12]: 0.4838 | Array Heatmap value (peptide array binding signal) [13]: 0.2996 | Array Heatmap value (peptide array binding signal) [14]: 0.7354 | Array Heatmap value (peptide array binding signal) [15]: 0.4524 | Array Heatmap value (peptide array binding signal) [16]: 0.3991 | Array Heatmap value (peptide array binding signal) [17]: 0.5396 | Array Heatmap value (peptide array binding signal) [18]: 0.3411 | Array Heatmap value (peptide array binding signal) [19]: 0.2204 | Array Heatmap value (peptide array binding signal) [20]: 0.339 | Array Heatmap value (peptide array binding signal) [21]: 0.4403 | Array Heatmap value (peptide array binding signal) [22]: 0.3344 | Array Heatmap value (peptide array binding signal) [23]: 0.3855 | Array Heatmap value (peptide array binding signal) [24]: 0.4703 | Array Heatmap value (peptide array binding signal) [25]: 0.5892 | Array Heatmap value (peptide array binding signal) [26]: 0.3861 | Array Heatmap value (peptide array binding signal) [27]: 0.624 | Array Heatmap value (peptide array binding signal) [28]: 0.4295 | Array Heatmap value (peptide array binding signal) [29]: 0.4284 | Array Heatmap value (peptide array binding signal) [30]: 0.6117 | Array Heatmap value (peptide array binding signal) [31]: 0.2353

H2A.Z (1-19): H2AZ 1-19 (AGGKAGKDSGKAKTKAVSR; UniProt P0C0S5 2-20, looked up, fragment)
Array Heatmap value (peptide array binding signal) [1]: 0.7315 | Array Heatmap value (peptide array binding signal) [2]: 0.5328 | Array Heatmap value (peptide array binding signal) [3]: 0.5607 | Array Heatmap value (peptide array binding signal) [4]: 0.6377 | Array Heatmap value (peptide array binding signal) [5]: 0.3952 | Array Heatmap value (peptide array binding signal) [6]: 0.4073 | Array Heatmap value (peptide array binding signal) [7]: 0.5743 | Array Heatmap value (peptide array binding signal) [8]: 0.4993 | Array Heatmap value (peptide array binding signal) [9]: 0.7054 | Array Heatmap value (peptide array binding signal) [10]: 0.6166 | Array Heatmap value (peptide array binding signal) [11]: 0.5259 | Array Heatmap value (peptide array binding signal) [12]: 0.6481 | Array Heatmap value (peptide array binding signal) [13]: 0.4264 | Array Heatmap value (peptide array binding signal) [14]: 0.7976 | Array Heatmap value (peptide array binding signal) [15]: 0.5693 | Array Heatmap value (peptide array binding signal) [16]: 0.5367 | Array Heatmap value (peptide array binding signal) [17]: 0.6658 | Array Heatmap value (peptide array binding signal) [18]: 0.3948 | Array Heatmap value (peptide array binding signal) [19]: 0.2847 | Array Heatmap value (peptide array binding signal) [20]: 0.3781 | Array Heatmap value (peptide array binding signal) [21]: 0.563 | Array Heatmap value (peptide array binding signal) [22]: 0.402 | Array Heatmap value (peptide array binding signal) [23]: 0.5374 | Array Heatmap value (peptide array binding signal) [24]: 0.6568 | Array Heatmap value (peptide array binding signal) [25]: 0.6115 | Array Heatmap value (peptide array binding signal) [26]: 0.4876 | Array Heatmap value (peptide array binding signal) [27]: 0.6378 | Array Heatmap value (peptide array binding signal) [28]: 0.4938 | Array Heatmap value (peptide array binding signal) [29]: 0.4992 | Array Heatmap value (peptide array binding signal) [30]: 0.7863 | Array Heatmap value (peptide array binding signal) [31]: 0.3163

H2A.Z K4ac + K8ac + K12ac (1-19) (N-ac): H2AZ 1-19 (Ac-AGGKAGKDSGKAKTKAVSR; not fully specified (residue 4); UniProt P0C0S5 2-20, looked up, fragment)
Array Heatmap value (peptide array binding signal) [1]: 0.7519 | Array Heatmap value (peptide array binding signal) [2]: 0.5365 | Array Heatmap value (peptide array binding signal) [3]: 0.5838 | Array Heatmap value (peptide array binding signal) [4]: 0.6947 | Array Heatmap value (peptide array binding signal) [5]: 0.3929 | Array Heatmap value (peptide array binding signal) [6]: 0.4048 | Array Heatmap value (peptide array binding signal) [7]: 0.5933 | Array Heatmap value (peptide array binding signal) [8]: 0.5225 | Array Heatmap value (peptide array binding signal) [9]: 0.6948 | Array Heatmap value (peptide array binding signal) [10]: 0.5984 | Array Heatmap value (peptide array binding signal) [11]: 0.5346 | Array Heatmap value (peptide array binding signal) [12]: 0.6452 | Array Heatmap value (peptide array binding signal) [13]: 0.4262 | Array Heatmap value (peptide array binding signal) [14]: 0.8638 | Array Heatmap value (peptide array binding signal) [15]: 0.5369 | Array Heatmap value (peptide array binding signal) [16]: 0.5392 | Array Heatmap value (peptide array binding signal) [17]: 0.6197 | Array Heatmap value (peptide array binding signal) [18]: 0.395 | Array Heatmap value (peptide array binding signal) [19]: 0.271 | Array Heatmap value (peptide array binding signal) [20]: 0.4285 | Array Heatmap value (peptide array binding signal) [21]: 0.565 | Array Heatmap value (peptide array binding signal) [22]: 0.4227 | Array Heatmap value (peptide array binding signal) [23]: 0.5134 | Array Heatmap value (peptide array binding signal) [24]: 0.5309 | Array Heatmap value (peptide array binding signal) [25]: 0.6161 | Array Heatmap value (peptide array binding signal) [26]: 0.5817 | Array Heatmap value (peptide array binding signal) [27]: 0.6584 | Array Heatmap value (peptide array binding signal) [28]: 0.5429 | Array Heatmap value (peptide array binding signal) [29]: 0.4842 | Array Heatmap value (peptide array binding signal) [30]: 0.7683 | Array Heatmap value (peptide array binding signal) [31]: 0.3233

— PMC6979384, “Characterization of the plant homeodomain (PHD) reader family for their histone tail interactions” (Epigenetics & Chromatin, 2020)
